Test results: EP4737449A1 (Changchun Genescience Pharmaceutical Co., Ltd., priority 2023, dated 2025)
Where two headings read alike, the source gives them in different places.

Legend:
[1] = test system: NUGC-3 cells; assay: NUGC-3 cell proliferation assay (CTG, 7 days); assay type: cell-based, human; settings: Homo sapiens, NUGC-3, 168 h
How it was run: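 Cells (200/well) in 1640 medium with 10% serum exposed to 10-point, 3-fold DMSO dilutions (duplicates) for 7 days at 37°C. Viability read by CellTiter-Glo luminescence; % inhibition normalized to DMSO and blank, IC50 from variable-slope nonlinear fit.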

[2] = molecular target: CYP 3A4 enzyme in human liver microsomes (Homo sapiens, UniProt P08684); assay: CYP3A4 inhibition experiment in human liver microsomes
Sequence of CYP 3A4 enzyme in human liver microsomes (P08684 whole entry): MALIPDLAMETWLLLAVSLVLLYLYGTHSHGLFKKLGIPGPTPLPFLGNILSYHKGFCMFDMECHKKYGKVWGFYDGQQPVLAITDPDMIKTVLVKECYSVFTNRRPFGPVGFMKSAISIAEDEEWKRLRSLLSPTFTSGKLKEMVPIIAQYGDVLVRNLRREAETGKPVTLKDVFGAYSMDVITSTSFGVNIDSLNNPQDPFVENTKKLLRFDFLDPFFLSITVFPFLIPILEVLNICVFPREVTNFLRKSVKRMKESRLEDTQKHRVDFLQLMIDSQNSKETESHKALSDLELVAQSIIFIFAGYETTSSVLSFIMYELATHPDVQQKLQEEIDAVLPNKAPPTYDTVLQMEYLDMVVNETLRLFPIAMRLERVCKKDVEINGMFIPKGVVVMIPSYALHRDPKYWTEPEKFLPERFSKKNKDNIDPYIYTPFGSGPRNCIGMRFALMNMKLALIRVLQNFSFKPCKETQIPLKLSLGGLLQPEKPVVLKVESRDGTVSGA
Description: The inhibitory effects of the test compounds on CYP 3A4T (with testosterone as substrate) and 3A4M (with midazolam as substrate) in human liver microsomes were evaluated in vitro to assess the medication safety of the compounds.
This study used the human liver microsome system and the cytochrome P450 enzyme probe substrate recommended by FDA guidelines for in vitro drug interaction studies to investigate the inhibition of the CYP 3A4 enzyme in human liver microsomes by the test compounds.
Test group (TG): Human liver microsomes were incubated with different concentrations of test compounds, NADPH (final concentration 2.00 mM) and probe substrates of different sub-enzymes (Table 4) for 5 min.
Positive control group (PC): Human liver microsomes were incubated with inhibitors (Table 4), NADPH (final concentration 2.00 mM) and probe substrates of different sub-enzymes (Table 4) for 5 min. Table 4 Probe substrates of sub-enzymes, inhibitors and incubation systems
The system was pre-incubated at 37°C for 5 min, and then 15 µL of 8 mM NADPH solution preheated at 37°C for 5-10 min to start the reaction. After incubation of the 96-well plate at 37°C for 5 min, 180 µL of acetonitrile:methanol (ACN:MeOH=1:1) solution containing internal standard (IS) was added to terminate the reaction. […] 80 µL of the supernatant was taken, added to 120 µL of ultrapure water, shaken evenly, and then detected by LC-MS/MS.
199 µL of 0.2 mg/mL HLM and 1 µL of 1 mM positive control inhibitor (ketoconazole) working solutions were taken and mixed evenly. 30 µL of the drug-containing liver microsome solution was taken and added to a 96-well plate, then 10 µL of substrate working solution (20 µM midazolam) was added, in duplicate. The system was pre-incubated at 37°C for 5 min, and then 15 µL of 8 mM NADPH solution preheated at 37°C for 5-10 min to start the reaction. After incubation of the 96-well plate at 37°C for 5 min, 180 µL of ACN:MeOH(1:1) solution containing IS was added to terminate the reaction. […] 80 µL of the supernatant was taken, added to 120 µL of ultrapure water, shaken evenly, and then detected by LC-MS/MS.
4.2.5.1 The relative activity of CYP450 sub-enzymes at different concentrations was calculated by dividing the peak area ratio (analyte peak area/internal standard peak area) of metabolites in the presence of the test sample or positive control by the peak area ratio of metabolites in the solvent control sample in the absence of the test article or positive control, according to the following formula: [formula] [formula]
4.2.5.2 Half maximal inhibitory concentration (IC50) was obtained by fitting according to the following model formula using Prism software: Y = Bottom + (Top−Bottom)/(1+10^(∧)((LogIC50−X)×HillSlope)) [formula]
X is the test sample concentration converted to logarithm (Log µM), Y is the relative activity (% of NC), Bottom and Top represent the percentage of enzyme activity at the bottom platform and top platform of the curve, respectively, and HillSlope represents the slope; to optimize the fitting effect, the use of other (nonlinear) dose-response models for fitting is not considered as a deviation from the protocol.

[3] = molecular target: T1, p53-Y220C mutant protein (Homo sapiens, UniProt P04637, Y220C); assay: In vitro DNA binding activity assay (TR-FRET); assay type: biochemical; settings: concentration required to increase the binding activity of protein to DNA by 50%
T1 construct: The recombinant Y220C p53 DBD protein with his-tag
How it was run: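 His-tagged Y220C p53 DBD was equilibrated with compound 60 min at room temperature, then biotin-DNA, anti-6His-Eu and streptavidin-d2 were added and incubated overnight in the dark. TR-FRET 665/615 nm ratio, background-corrected, was expressed as % activity versus vehicle; SC150 is the concentration raising DNA binding by 50%.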

[4] = NUGC-3 cell proliferation, 7 days, CTG, read-out: IC50
[5] = CYP 3A4M IC50, human liver microsomes, midazolam as substrate
[6] = CYP 3A4T IC50, human liver microsomes, testosterone as substrate

Compound	IC50 [1, 4]	IC50 [2, 5]	IC50 [2, 6]	SC150 [3]	IC50 [1]
Cc1cc(C(=O)NCC#Cc2nn3c(N[C@@H]4CCN(C)C[C@@H]4F)cccc3c2CC(F)(F)F)co1 [Compound 278, N-[3-(7-{[(3S,4R)-3-fluoro-1-methylpiperidin-4-yl]amino}-3-(2,2,2-trifluoroethyl)pyrazolo[1,5-a]pyridin-2-yl)prop-2-yn-1-yl]-5-methylfuran-3-carboxamide]	1.12 µM	14.7 µM	13 µM	24 nM	–
COCCn1ccc(C(=O)NCC#Cc2nn3c(N[C@@H]4CCN(C)C[C@@H]4F)cccc3c2CC(F)(F)F)c1 [Compound 279, N-[3-(7-{[(3S,4R)-3-fluoro-1-methylpiperidin-4-yl]amino}-3-(2,2,2-trifluoroethyl)pyrazolo[1,5-a]pyridin-2-yl)prop-2-yn-1-yl]-1-(methoxyethyl)-1H-pyrrole-3-carboxamide]	0.672 µM	18 µM	24.3 µM	9 nM	–
CN1CC[C@@H](Nc2cccc3c(CC(F)(F)F)c(C#CCNC(=O)c4cc5n(c4)CCOC5)nn23)[C@@H](F)C1 [Compound 281, N-[3-(7-{[(3S,4R)-3-fluoro-1-methylpiperidin-4-yl]amino}-3-(2,2,2-trifluoroethyl)pyrazolo[1,5-a]pyridin-2-yl)prop-2-yn-1-yl]-3,4-dihydro-1H-pyrrolo[2,1-c][1,4]oxazine-7-carboxamide]	0.413 µM	> 30 µM	> 30 µM	13 nM	–
CN1CC[C@@H](Nc2cccc3c(CC(F)(F)F)c(C#CCNC(=O)c4ncn(C(C)(C)C)c4N)nn23)[C@@H](F)C1 [Compound 283, 5-amino-1-tert-butyl-N [3-(7-{[(3S,4R)-3-fluoro-1-methylpiperidin-4-yl]amino}-3-(2,2,2-trifluoroethyl)pyrazolo[1,5-a]pyridin-2-yl)prop-2-yn-1-yl]-1H-pyrazole-4-carboxamide]	–	> 30 µM	18.1 µM	19 nM	1.64 µM
CN1CC[C@@H](Nc2cccc3c(CC(F)(F)F)c(C#CCNC(=O)c4cnn(C56CC(C5)C6)c4N)nn23)[C@@H](F)C1 [Compound 289, 5-amino-1-(dicyclo[1.1.1]pent-1-yl)-N-[3-(7-{[(3S,4R)-3-fluoro-1-methylpiperidin-4-yl]amino}-3-(2,2,2-trifluoroethyl)pyrazolo[1,5-a]pyridin-2-yl)prop-2-yn-1-yl]-1H-pyrazole-4-carboxamide]	–	12.9 µM	13.2 µM	5 nM	0.182 µM
CCN1CC[C@@H](Nc2cccc3c(CC(F)(F)F)c(C#CCNC(=O)c4cnn(C(C)(C)C)c4N)nn23)[C@@H](F)C1 [Compound 353, 5-amino-1-tert-butyl-N-[3-(7-{[(3S,4R)-1-ethyl-3-fluoropiperidin-4-yl]amino}-3-(2,2,2-trifluoroethyl)pyrazolo[1,5-a]pyridin-2-yl)prop-2-yn-1-yl]-1H-pyrazole-4-carboxamide]	0.152 µM	22.3 µM	26.5 µM	4 nM	–
CC(C)N1CC[C@@H](Nc2cccc3c(CC(F)(F)F)c(C#CCNC(=O)c4cnn(C(C)(C)C)c4N)nn23)[C@@H](F)C1 [Compound 354]	–	15.6 µM	18.5 µM	3 nM	0.177 µM
